# Assays:
# Type in all cases: cell-based
# algae = assay: Surface protection, algal resistance of coating (BBA MOAT 33); settings: after leaching with running water for 72 hours
# Protocol: (§1) Testing was performed according to the BS3900 G6 and BBA MOAT 33 methods for evaluation versus fungi and algae, respectively. The methods involve painting a substrate panel with the coating and leaching under running water for 72 hours. The substrates are incubated for 56 days after being inoculated with fungi or algae. Performance is judged by comparing with suitable control samples i.e without biocide, a positive control and for fungi with substrate panels that have not been leached.
# (§2) Performance rating of painted test substrates is as follows and a score of 0, 1 and 2 is considered as a pass • 0=no growth • 1=trace of growth • 2=growth on 1-10% of test face • 3=growth on 10-30% of test face • 4=growth on 30-70% of test face • 5=growth on 70-100% of test face. Surface Protection using CuHDO
# fungi = assay: Surface protection, fungal resistance of coating (BS3900 G6); set-up: key: 0=no growth; 1=trace of growth; 2=growth on 1-10% of test face; 3=growth on 10-30% of test face; 4=growth on 30-70% of test face; 5=growth on 70-100% of test face
# Protocol: as §1, with “The substrates are incubated for 56 days after being inoculated with fungi or algae.” left out
# as §2
# [1] = tested on: Bacterial and Fungal Challenges; assay: In can preservation challenge test (IBRG draft method), overall efficacy; settings: 1000 ppm, acrylic ester and acrylonitrile polymer dispersion
# Protocol: (§3) Tests were performed according to the IBRG draft method (5.2, June 2001). This briefly entails the substrate being dosed with the biocide and allowed to equilibrate. Samples are inoculated once per week for 4 weeks and checked for recovery of organisms at 1, 3 and 7 days after inoculation.
# (§4) Results to show efficacy in a polymer based on an acrylic ester and acrylonitrile polymer dispersion using: • 1000 ppm CuHDO • 1000 ppm in-situ generated CuHDO (by blending within the matrix or medium, 315 ppm of basic copper carbonate containing 57.5% copper content with 3492 ppm of a 30% water soluble solution of potassium salt of N′-hydroxy-N-cyclohexyldiazenium oxide (KHDO))
# (§5) Using the following performance rating: • P=Pass (0-100 colonies) • F=Fail (101->1000 colonies)
# Fungal Challenges = assay: In can preservation challenge test (IBRG draft method), fungal challenges; settings: 1000 ppm, acrylic ester and acrylonitrile polymer dispersion
# Protocol: as §3, §4, §5
# Bacterial Challenges = assay: In can preservation challenge test (IBRG draft method), bacterial challenges; settings: 1000 ppm, acrylic ester and acrylonitrile polymer dispersion
# Protocol: as §3, §4, §5
# [2] = 0.5% by weight, after leaching with running water for 72 hours
# [3] = 0.5% by weight, coating as applied
# [4] = 0.15% by weight, after leaching with running water for 72 hours
# [5] = 0.15% by weight, coating as applied
# [6] = 0.2% by weight, after leaching with running water for 72 hours
# [7] = 0.2% by weight, coating as applied
# [8] = 1.5% by weight, after leaching with running water for 72 hours
# [9] = 1.5% by weight, coating as applied
smiles,measurement,setting,value
"CCNc1nc(NC(C)(C)C)nc(SC)n1 [Terbutryn, reference compound]",ALGAL GROWTH ASSESSMENT 28 days,algae; 0.5% by weight,0.0
same,ALGAL GROWTH ASSESSMENT 56 days,algae; 0.5% by weight,0.0
"CCCCNC(=O)OCC#CI [IPBC, reference compound]",FUNGAL GROWTH ASSESSMENT Plaster Substrate 28 days,fungi; [2],1
same,FUNGAL GROWTH ASSESSMENT Plaster Substrate 56 days,fungi; [2],1
same,FUNGAL GROWTH ASSESSMENT Wood Substrate 28 days,fungi; [2],1
same,FUNGAL GROWTH ASSESSMENT Wood Substrate 56 days,fungi; [2],1
same,FUNGAL GROWTH ASSESSMENT Plaster Substrate 28 days,fungi; [3],1
same,FUNGAL GROWTH ASSESSMENT Plaster Substrate 56 days,fungi; [3],1
same,FUNGAL GROWTH ASSESSMENT Wood Substrate 28 days,fungi; [3],1
same,FUNGAL GROWTH ASSESSMENT Wood Substrate 56 days,fungi; [3],1
"[Cu+2].[O-]/N=[N+](\[O-])C1CCCCC1.[O-]/N=[N+](\[O-])C1CCCCC1 [CuHDO, copper salt of N′-hydroxy-N-cyclohexyl-diazenium oxide]",Overall Efficacy,[1]; pH 5,F^2 (F=Fail (101->1000 colonies))
same,Overall Efficacy,[1]; pH 7,P (P=Pass (0-100 colonies))
same,Overall Efficacy,[1]; pH 9,P (P=Pass (0-100 colonies))
same,FUNGAL GROWTH ASSESSMENT Plaster Substrate 28 days,fungi; [4],1
same,FUNGAL GROWTH ASSESSMENT Plaster Substrate 42 days,fungi; [4],1
same,FUNGAL GROWTH ASSESSMENT Plaster Substrate 56 days,fungi; [4],2 (2=growth on 1-10% of test face)
same,FUNGAL GROWTH ASSESSMENT Wood Substrate 28 days,fungi; [4],1
same,FUNGAL GROWTH ASSESSMENT Wood Substrate 42 days,fungi; [4],1
same,FUNGAL GROWTH ASSESSMENT Wood Substrate 56 days,fungi; [4],2 (2=growth on 1-10% of test face)
same,FUNGAL GROWTH ASSESSMENT Plaster Substrate 28 days,fungi; [5],1
same,FUNGAL GROWTH ASSESSMENT Plaster Substrate 42 days,fungi; [5],1
same,FUNGAL GROWTH ASSESSMENT Plaster Substrate 56 days,fungi; [5],1
same,FUNGAL GROWTH ASSESSMENT Wood Substrate 28 days,fungi; [5],1
same,FUNGAL GROWTH ASSESSMENT Wood Substrate 42 days,fungi; [5],1
same,FUNGAL GROWTH ASSESSMENT Wood Substrate 56 days,fungi; [5],1
same,FUNGAL GROWTH ASSESSMENT Plaster Substrate 28 days,fungi; [6],2 (2=growth on 1-10% of test face)
same,FUNGAL GROWTH ASSESSMENT Plaster Substrate 56 days,fungi; [6],3 (3=growth on 10-30% of test face)
same,FUNGAL GROWTH ASSESSMENT Wood Substrate 28 days,fungi; [6],2 (2=growth on 1-10% of test face)
same,FUNGAL GROWTH ASSESSMENT Wood Substrate 56 days,fungi; [6],3 (3=growth on 10-30% of test face)
same,FUNGAL GROWTH ASSESSMENT Plaster Substrate 28 days,fungi; [7],1
same,FUNGAL GROWTH ASSESSMENT Plaster Substrate 56 days,fungi; [7],1
same,FUNGAL GROWTH ASSESSMENT Wood Substrate 28 days,fungi; [7],1
same,FUNGAL GROWTH ASSESSMENT Wood Substrate 56 days,fungi; [7],1
same,FUNGAL GROWTH ASSESSMENT Plaster Substrate 28 days,fungi; [8],1
same,FUNGAL GROWTH ASSESSMENT Plaster Substrate 42 days,fungi; [8],1
same,FUNGAL GROWTH ASSESSMENT Plaster Substrate 56 days,fungi; [8],1
same,FUNGAL GROWTH ASSESSMENT Wood Substrate 28 days,fungi; [8],1
same,FUNGAL GROWTH ASSESSMENT Wood Substrate 42 days,fungi; [8],1
same,FUNGAL GROWTH ASSESSMENT Wood Substrate 56 days,fungi; [8],1
same,FUNGAL GROWTH ASSESSMENT Plaster Substrate 28 days,fungi; [9],1
same,FUNGAL GROWTH ASSESSMENT Plaster Substrate 42 days,fungi; [9],1
same,FUNGAL GROWTH ASSESSMENT Plaster Substrate 56 days,fungi; [9],1
same,FUNGAL GROWTH ASSESSMENT Wood Substrate 28 days,fungi; [9],1
same,FUNGAL GROWTH ASSESSMENT Wood Substrate 42 days,fungi; [9],1
same,FUNGAL GROWTH ASSESSMENT Wood Substrate 56 days,fungi; [9],1
same,Fungal Challenges,Fungal Challenges; pH 5,F^2 (F=Fail (101->1000 colonies))
same,Fungal Challenges,Fungal Challenges; pH 7,P (P=Pass (0-100 colonies))
same,Fungal Challenges,Fungal Challenges; pH 9,P (P=Pass (0-100 colonies))
same,Bacterial Challenges,Bacterial Challenges; pH 5,P (P=Pass (0-100 colonies))
same,Bacterial Challenges,Bacterial Challenges; pH 7,P (P=Pass (0-100 colonies))
same,Bacterial Challenges,Bacterial Challenges; pH 9,P (P=Pass (0-100 colonies))
same,ALGAL GROWTH ASSESSMENT 28 days,algae; 0.15% by weight,2/2
same,ALGAL GROWTH ASSESSMENT 42 days,algae; 0.15% by weight,1/1
same,ALGAL GROWTH ASSESSMENT 56 days,algae; 0.15% by weight,0/1
same,ALGAL GROWTH ASSESSMENT 28 days,algae; 0.2% by weight,0.1
same,ALGAL GROWTH ASSESSMENT 56 days,algae; 0.2% by weight,1.2
same,ALGAL GROWTH ASSESSMENT 28 days,algae; 1.5% by weight,0/0
same,ALGAL GROWTH ASSESSMENT 42 days,algae; 1.5% by weight,0/0
same,ALGAL GROWTH ASSESSMENT 56 days,algae; 1.5% by weight,0/0

# — patent US7910569B2, “Microbicidal compositions and their use” (BASF Aktiengesellschaft, priority 2003, dated 2011)
